# Results reported in the supplement of paper PMC11208160.
# Assay: recombinant barcode read abundance after kanamycin selection (control-corrected) (log10(CPM+1)); higher = more efficient recombination; sequences stand for … in AGTGCAGAGAAAATCGGCCAGTTTTCTCTGCCTGCAGTCCGCATGCCGT…AGATTTATGCAGCGGACTGCCTTTCTCCCAAAGTGATAAACCGGACAGTATCATGGACCGGTTTTCCCGGTAATCCGTATTTGCAAGGTTGGTTTCACT; site = the 11-nt target
# Experimental: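 Pooled E. coli target-specificity screen for the IS621 bridge recombinase. Each library plasmid pairs an 11-nt target (CT core) with a bridge RNA whose target-binding loop (9-nt LTG + 4-nt RTG) is reprogrammed; the rest of the 177-nt WT IS621 bridge RNA scaffold is fixed. The plasmid is co-electroporated with a WT donor plasmid; recombinase is induced with 0.1 mM IPTG and recombinants are selected on kanamycin. Recombinant barcodes are sequenced, converted to CPM, averaged over two biological replicates and corrected by the unselected control CPM. Molecule = full bridge RNA written as DNA: LTG = specificity nt 1-9, RTG = reverse complement of specificity nt 8-11, in the WT scaffold.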
# 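Further: IS621 recombinase and bridge RNA in Escherichia coli cells.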
row,Sequence,recombinant barcode read abundance (log10)
1,AACAGTGCTTGGGTTCTAACCTGTTGCCT (site AACATTGCTAG),0.0547
2,AACATGCCTTGGGTTCTAACCTGTTGCTT (site AACAAGCCTCA),0.233
3,AACATGCCTTGGGTTCTAACCTGTTGCTT (site AACATGCCTAA),0.478
4,AACCAGCCTTGGGTTCTAACCTGTTGCCT (site AACCAGCCTAG),1.33
5,AACCAGCCTTGGGTTCTAACCTGTTGCCT (site AACCATCCTAG),0
6,AACCAGTCTTGGGTTCTAACCTGTTGCGA (site AACCAGTCTTC),1.38
7,AACCAGTCTTGGGTTCTAACCTGTTGCGA (site AACTAGTCTTA),0.0824
8,AACGCTCCTTGGGTTCTAACCTGTTGCCT (site AACGCTCCTAG),0.102
9,AACGCTCCTTGGGTTCTAACCTGTTGCCT (site ACCGCTCCTAG),0
10,AACGCTCCTTGGGTTCTAACCTGTTGCCT (site AGCGCTCCTAG),0.833
11,AACGCTCCTTGGGTTCTAACCTGTTGCCT (site ATCGCTCCTAG),0.239
12,AACGCTCCTTGGGTTCTAACCTGTTGCGG (site AACGCTCCTCC),0.503
13,AACGCTCCTTGGGTTCTAACCTGTTGCGG (site CACGGTCCTCC),0.0943
14,AACTAAGCTTGGGTTCTAACCTGTTGCCT (site AACTAAGCTAG),0.336
15,AACTAAGCTTGGGTTCTAACCTGTTGCCT (site GGAAGCCCTTA),0.325
16,AACTCAACTTGGGTTCTAACCTGTTGCCT (site AACTAAACTAG),0.108
17,AACTCAACTTGGGTTCTAACCTGTTGCCT (site AACTCAACTAG),0.288
18,AACTCAACTTGGGTTCTAACCTGTTGCCT (site AACTGAACTAG),0.18
19,AACTCAACTTGGGTTCTAACCTGTTGCCT (site AACTTAACTAG),0.107
20,AAGAAAGCTTGGGTTCTAACCTGTTGCCT (site AAGAAAGCTAG),1.82
21,AAGAAAGCTTGGGTTCTAACCTGTTGCCT (site AAGACAGCTAG),0.0854
22,AAGAAAGCTTGGGTTCTAACCTGTTGCCT (site AAGAGAGCTAG),0.113

row,Sequence,recombinant barcode read abundance (log10)
1,AAGAAAGCTTGGGTTCTAACCTGTTGCCT (site AAGATAGCTAG),0.464
2,AAGACCTCTTGGGTTCTAACCTGTTGCCT (site AAGACCTCTAG),1.67
3,AAGACCTCTTGGGTTCTAACCTGTTGCCT (site TAGACCTCTAG),1.29
4,AAGATACCTTGGGTTCTAACCTGTTGCCT (site AAGATACCTAG),2.23
5,AAGATACCTTGGGTTCTAACCTGTTGCCT (site ATGATACCTAG),0.0427
6,AAGCACTCTTGGGTTCTAACCTGTTGCCT (site AAGCAATCTAG),0.195
7,AAGCACTCTTGGGTTCTAACCTGTTGCCT (site AAGCACTCTAG),2.58
8,AAGCACTCTTGGGTTCTAACCTGTTGCCT (site AAGCAGTCTAG),0.107
9,AAGCACTCTTGGGTTCTAACCTGTTGCCT (site AAGCATTCTAG),0
10,AAGCAGTCTTGGGTTCTAACCTGTTGCCT (site AAGCAATCTAG),0.44
11,AAGCAGTCTTGGGTTCTAACCTGTTGCCT (site AAGCACTCTAG),0.206
12,AAGCAGTCTTGGGTTCTAACCTGTTGCCT (site AAGCAGTCTAG),2.5
13,AAGCAGTCTTGGGTTCTAACCTGTTGCCT (site AAGCATTCTAG),0.162
14,AAGCATCCTTGGGTTCTAACCTGTTGCCT (site AAGCATCCTAG),1.07
15,AAGCATCCTTGGGTTCTAACCTGTTGCCT (site ACGCATCCTAG),0.192
16,AAGCATCCTTGGGTTCTAACCTGTTGCCT (site AGGCATCCTAG),0.358
17,AAGCATCCTTGGGTTCTAACCTGTTGCCT (site ATGCATCCTAG),0.00873
18,AAGCATTCTTGGGTTCTAACCTGTTGCCT (site AAGCAATCTAG),0.379
19,AAGCATTCTTGGGTTCTAACCTGTTGCCT (site AAGCACTCTAG),0.111
20,AAGCATTCTTGGGTTCTAACCTGTTGCCT (site AAGCAGTCTAG),0.254
21,AAGCATTCTTGGGTTCTAACCTGTTGCCT (site AAGCATTCTAG),1.81
22,AAGCGCTCTTGGGTTCTAACCTGTTGCTG (site AAGCGCTCTCA),2.39

row,Sequence,recombinant barcode read abundance (log10)
1,AAGCGCTCTTGGGTTCTAACCTGTTGCTG (site TTCTATGCTAC),0.542
2,AAGCGTACTTGGGTTCTAACCTGTTGCCT (site AAGCGTACTAG),1.92
3,AAGCGTACTTGGGTTCTAACCTGTTGCCT (site AAGCGTCCTAG),0.141
4,AAGCGTACTTGGGTTCTAACCTGTTGCCT (site AAGCGTGCTAG),0.0421
5,AAGCGTACTTGGGTTCTAACCTGTTGCCT (site AAGCGTTCTAG),0.128
6,AAGCGTGCTTGGGTTCTAACCTGTTGCCT (site AAGCGTACTAG),1.38
7,AAGCGTGCTTGGGTTCTAACCTGTTGCCT (site AAGCGTCCTAG),0.197
8,AAGCGTGCTTGGGTTCTAACCTGTTGCCT (site AAGCGTGCTAG),1.7
9,AAGCGTGCTTGGGTTCTAACCTGTTGCCT (site AAGCGTTCTAG),0.216
10,AAGCGTTCTTGGGTTCTAACCTGTTGCCT (site AAGCGTACTAG),0.0209
11,AAGCGTTCTTGGGTTCTAACCTGTTGCCT (site AAGCGTCCTAG),0.111
12,AAGCGTTCTTGGGTTCTAACCTGTTGCCT (site AAGCGTGCTAG),0.0909
13,AAGCGTTCTTGGGTTCTAACCTGTTGCCT (site AAGCGTTCTAG),1.54
14,AAGCTGCCTTGGGTTCTAACCTGTTGCCT (site AAGCTGCCTAG),1.49
15,AAGCTGCCTTGGGTTCTAACCTGTTGCCT (site GAGCTGCCTAA),0.049
16,AAGGAACCTTGGGTTCTAACCTGTTGCCT (site AAGGAACCTAG),2.59
17,AAGGAACCTTGGGTTCTAACCTGTTGCCT (site CAGGAACCTAG),1.23
18,AAGGAACCTTGGGTTCTAACCTGTTGCCT (site GAGGAACCTAG),0.951
19,AAGGAACCTTGGGTTCTAACCTGTTGCCT (site TAGGAACCTAG),2.11
20,AAGGAGACTTGGGTTCTAACCTGTTGCCT (site AAAGGGACTAG),0.116
21,AAGGAGACTTGGGTTCTAACCTGTTGCCT (site AAGGAGACTAG),2.12
22,AAGGCTTCTTGGGTTCTAACCTGTTGCCT (site AAGGCTACTAG),0.171
